The substances below were run on DQ0602 (assay: DQ0602 peptide competition binding assay (vs Bio-EBV epitope, DELFIA TRF)). Conditions: Suppl Table 1, motif in Pandemrix; 40 μM competitor vs 1 μM Bio-EBV, 25 nM DQ0602, pH 4.6, 3 days 37 °C, duplicate; <25% strong, 25–50% weak binder.
Description: The reaction was quenched by adding two volumes of neutralization buffer (100 mM Tris-HCl, pH = 8.6, 150 mM NaCl, 1% BSA, 0.5 Nonidet P-40 (IGEPAL CA-630, Sigma), 0.1% NaN3). Monoclonal anti-DQ (SPV-L3) antibodies (Cat# BNUM0200-50, Biotium, Fremont, CA, USA) (1:400 dilution in 100 mM carbonate-bicarbonate buffer, pH = 9.5) were coated onto a high binding 96-well plate (REF# 9018, Corning), and incubated with neutralized reaction for 1–2 h at room temperature (RT). After washing five times with 300 μL/well of wash buffer (phosphate-buffered saline (PBS), 0.05% Tween-20, pH = 7.4), 100 μL/well of Europium (Eu)-labelled streptavidin (Cat# 1244–360, PerkinElmer, Waltham, MA, USA) (1:1000 dilution in PBS, 1% BSA, pH = 7.4) was added and incubated for 1 h at RT. After washing 5 times again with 300 μL/well of wash buffer, DELFIA® time-resolved fluorescence (TRF) intensity was detected using a Tecan Infinite® M1000 after adding 100 μL/well of enhancement solution (Cat# 1244–105, PerkinElmer). Non-specific binding was removed through extensive wash with wash buffer.
A combination of in-vitro and in-silico methods was adopted to address this question. We synthesized 15 mer peptide stretches overlapping by 4mers using the most abundant viral proteins (HA, NA, NP, M1 & PB2) from reference strains (X179A and wild type pH1N1) as a template. […] In this way, a database of experimentally derived peptide binders from the abundant viral proteins was built. Next, we compared the mutated motifs (Table 3) from the vaccines to the reference motifs already tested for DQ0602 binding.

| Substance | %DQ6-EBV Binding (PANDEMRIX motif) |
| --- | --- |
| LEVLMEWLKT[R > I]PILSPLTKG | 51.58% |
| RTTIMAAFNG[N > D]TEGRTSDMR | 12.48% |
| NNAKEIGNGC[F > Y]EFYHKCDNT | 84.06% |
| LQRRRFVQNA[L > P]NGNGDPNNM | 88.31% |
| VGKEFNHLEK[R > I]IENLNKKVD | 42.31% |
| NTSLPFQNIH[P > Q]ITIGKCPKY | 42.35% |
| MASQGTKRSY[E > Q]QMETDGERQ | 78.07% |
| QGRGVFELSD[E]KAASPIVPS | 14.93% |
| QVYSLIRPNE[N > D]PAHKSQLVW | 35.94% |
| QRRRFVQNAL[N > D]GNGDPNNMD | 77.89% |
| DPNNMDKAVK[L > M]YRKLKREIT | 71.82% |
| QNALNGNGDP[N > D]NMDKAVKLY | 6.87% |
| NALNGNGDPN[N > D]MDKAVKLYR | 27.47% |

Same assay, conditions: Suppl Table 1, reference motif of X179A; 40 μM competitor vs 1 μM Bio-EBV, 25 nM DQ0602, pH 4.6, 3 days 37 °C, duplicate; <25% strong, 25–50% weak binder

| Substance | %DQ6-EBV Binding (X179A motif) |
| --- | --- |
| QNALNGNGDP[N]NMDKAVKLY | 6.01% |
| NTSLPFQNIH[P]ITIGKCPKY | 56.53% |
| LEVLMEWLKT[R]PILSPLTKG | 116.06% |
| VGKEFNHLEK[R]IENLNKKVD | 80.71% |
| DPNNMDKAVK[L]YRKLKREIT | 73.65% |
| QVYSLIRPNE[N]PAHKSQLVW | 48.19% |
| NALNGNGDPN[N]MDKAVKLYR | 32.79% |
| QGRGVFELSD[E]KAASPIVPS | 14.93% |
| NNAKEIGNGC[F]EFYHKCDNT | 79.28% |
| LQRRRFVQNA[L]NGNGDPNNM | 83.1% |
| MASQGTKRSY[E]QMETDGERQ | 67.56% |
| QRRRFVQNAL[N]GNGDPNNMD | 66.28% |

Same assay, conditions: Suppl Table 1, wild type pH1N1 motif; 40 μM competitor vs 1 μM Bio-EBV, 25 nM DQ0602, pH 4.6, 3 days 37 °C, duplicate; <25% strong, 25–50% weak binder

| Substance | %DQ6-EBV Binding (PH1N1 motif) |
| --- | --- |
| MASQGTKRSY[E]QMETGGERQ | 71.8% |
| NTSLPFQNIH[P]ITIGKCPKY | 56.53% |
| VGKEFNHLEK[R]IENLNKKVD | 80.71% |
| DPNNMDRAVK[L]YKKLKREIT | 67.01% |
| NALNGNGDPN[N]MDRAVKLYK | 21.69% |
| QVVSLMRPNE[N]PAHKSQLVW | 31.89% |
| QGRGVFELSD[E]KATNPIVPS | 39.96% |
| LEALMEWLKT[R]PILSPLTKG | 31.61% |
| NNAKEIGNGC[F]EFYHKCDNT | 79.28% |
| LQRRRFVQNA[L]NGNGDPNNM | 83.1% |
| QRRRFVQNAL[N]GNGDPNNMD | 66.28% |

Source: PMC7712488 (Vaccines, 2020)
